Data reported in ChEMBL document CHEMBL1221208, “ATP-competitive inhibitors of the mitotic kinesin KSP that function via an allosteric mechanism” (Nat Chem Biol, 2007).

How the values were obtained:
[1] = target: Centromere-associated protein E (Homo sapiens) (UniProt Q02224); assay: Inhibition of CENPE at 10 uM by puruvate kinsase-lactate dehydrogenase detection system
[2] = target: Kinesin-like protein KIF1A (Homo sapiens) (UniProt Q12756); assay: Inhibition of Kif1A at 10 uM by puruvate kinsase-lactate dehydrogenase detection system
Kinesin-like protein KIF1A (Homo sapiens), sequence (Q12756 whole entry): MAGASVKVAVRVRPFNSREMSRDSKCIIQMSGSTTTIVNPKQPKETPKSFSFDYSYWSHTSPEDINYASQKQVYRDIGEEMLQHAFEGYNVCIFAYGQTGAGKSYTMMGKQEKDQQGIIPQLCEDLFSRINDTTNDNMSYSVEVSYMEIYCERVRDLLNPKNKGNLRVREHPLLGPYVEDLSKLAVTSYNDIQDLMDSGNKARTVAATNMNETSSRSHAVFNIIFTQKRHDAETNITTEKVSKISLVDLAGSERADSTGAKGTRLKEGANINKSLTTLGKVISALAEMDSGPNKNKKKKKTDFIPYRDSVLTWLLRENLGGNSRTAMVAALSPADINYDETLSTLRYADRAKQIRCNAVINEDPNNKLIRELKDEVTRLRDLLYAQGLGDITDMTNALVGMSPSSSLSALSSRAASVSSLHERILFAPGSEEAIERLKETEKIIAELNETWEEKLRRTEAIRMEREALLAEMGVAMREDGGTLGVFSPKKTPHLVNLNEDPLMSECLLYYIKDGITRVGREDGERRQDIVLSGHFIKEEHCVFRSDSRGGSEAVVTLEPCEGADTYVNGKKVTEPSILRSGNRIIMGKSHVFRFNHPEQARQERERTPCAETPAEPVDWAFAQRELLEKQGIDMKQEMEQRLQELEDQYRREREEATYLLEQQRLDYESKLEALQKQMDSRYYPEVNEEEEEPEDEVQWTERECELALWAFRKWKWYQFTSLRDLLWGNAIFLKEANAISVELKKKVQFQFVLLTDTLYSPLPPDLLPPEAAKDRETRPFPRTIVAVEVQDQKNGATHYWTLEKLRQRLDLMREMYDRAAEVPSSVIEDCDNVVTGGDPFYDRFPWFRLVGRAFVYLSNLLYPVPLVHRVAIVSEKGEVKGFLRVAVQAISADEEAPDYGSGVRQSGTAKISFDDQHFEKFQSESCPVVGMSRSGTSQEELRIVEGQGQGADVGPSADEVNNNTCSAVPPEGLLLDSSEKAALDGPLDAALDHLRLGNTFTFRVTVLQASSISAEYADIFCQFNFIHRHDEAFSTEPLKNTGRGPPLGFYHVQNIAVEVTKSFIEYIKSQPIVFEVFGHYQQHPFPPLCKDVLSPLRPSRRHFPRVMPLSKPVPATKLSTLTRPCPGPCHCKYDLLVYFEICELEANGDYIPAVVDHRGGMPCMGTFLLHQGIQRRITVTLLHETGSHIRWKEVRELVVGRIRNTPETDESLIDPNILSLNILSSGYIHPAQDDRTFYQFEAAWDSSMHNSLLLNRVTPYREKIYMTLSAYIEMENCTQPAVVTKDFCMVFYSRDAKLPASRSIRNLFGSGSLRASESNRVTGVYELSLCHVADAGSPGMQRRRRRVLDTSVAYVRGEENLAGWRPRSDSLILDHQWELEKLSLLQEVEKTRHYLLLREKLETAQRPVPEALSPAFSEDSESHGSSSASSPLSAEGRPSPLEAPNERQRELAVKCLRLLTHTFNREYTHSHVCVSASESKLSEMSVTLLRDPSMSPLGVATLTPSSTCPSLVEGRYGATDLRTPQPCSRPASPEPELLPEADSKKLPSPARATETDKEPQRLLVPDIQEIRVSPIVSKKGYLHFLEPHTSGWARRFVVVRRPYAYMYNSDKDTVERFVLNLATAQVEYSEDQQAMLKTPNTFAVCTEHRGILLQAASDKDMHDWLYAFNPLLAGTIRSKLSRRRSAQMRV

[3] = target: T1, Kinesin-like protein KIF2C (Homo sapiens) (UniProt Q99661); assay: Inhibition of MCAK at 10 uM by puruvate kinsase-lactate dehydrogenase detection system
T1 sequence (whole entry): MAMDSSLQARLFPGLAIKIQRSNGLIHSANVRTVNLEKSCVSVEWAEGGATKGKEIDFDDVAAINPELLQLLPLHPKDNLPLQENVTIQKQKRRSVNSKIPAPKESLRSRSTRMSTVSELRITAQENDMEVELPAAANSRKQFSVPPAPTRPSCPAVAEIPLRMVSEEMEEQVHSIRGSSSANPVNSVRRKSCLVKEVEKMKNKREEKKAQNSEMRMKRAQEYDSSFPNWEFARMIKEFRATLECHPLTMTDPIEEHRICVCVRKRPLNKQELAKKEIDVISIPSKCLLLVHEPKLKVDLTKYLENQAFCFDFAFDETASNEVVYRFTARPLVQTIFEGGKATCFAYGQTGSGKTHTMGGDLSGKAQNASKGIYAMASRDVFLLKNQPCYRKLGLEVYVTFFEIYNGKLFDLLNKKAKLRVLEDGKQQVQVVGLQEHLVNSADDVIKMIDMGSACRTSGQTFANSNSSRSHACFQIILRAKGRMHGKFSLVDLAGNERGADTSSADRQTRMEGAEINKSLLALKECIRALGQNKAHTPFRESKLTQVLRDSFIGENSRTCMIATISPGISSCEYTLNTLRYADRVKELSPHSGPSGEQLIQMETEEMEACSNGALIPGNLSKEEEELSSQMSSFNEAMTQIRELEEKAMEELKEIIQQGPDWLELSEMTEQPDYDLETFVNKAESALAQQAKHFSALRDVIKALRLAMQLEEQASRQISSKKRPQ

[4] = target: T2, Kinesin-like protein KIF11 (Homo sapiens) (UniProt P52732); assay: Inhibition of Eg5 at 10 uM by puruvate kinsase-lactate dehydrogenase detection system
T2 sequence (whole entry): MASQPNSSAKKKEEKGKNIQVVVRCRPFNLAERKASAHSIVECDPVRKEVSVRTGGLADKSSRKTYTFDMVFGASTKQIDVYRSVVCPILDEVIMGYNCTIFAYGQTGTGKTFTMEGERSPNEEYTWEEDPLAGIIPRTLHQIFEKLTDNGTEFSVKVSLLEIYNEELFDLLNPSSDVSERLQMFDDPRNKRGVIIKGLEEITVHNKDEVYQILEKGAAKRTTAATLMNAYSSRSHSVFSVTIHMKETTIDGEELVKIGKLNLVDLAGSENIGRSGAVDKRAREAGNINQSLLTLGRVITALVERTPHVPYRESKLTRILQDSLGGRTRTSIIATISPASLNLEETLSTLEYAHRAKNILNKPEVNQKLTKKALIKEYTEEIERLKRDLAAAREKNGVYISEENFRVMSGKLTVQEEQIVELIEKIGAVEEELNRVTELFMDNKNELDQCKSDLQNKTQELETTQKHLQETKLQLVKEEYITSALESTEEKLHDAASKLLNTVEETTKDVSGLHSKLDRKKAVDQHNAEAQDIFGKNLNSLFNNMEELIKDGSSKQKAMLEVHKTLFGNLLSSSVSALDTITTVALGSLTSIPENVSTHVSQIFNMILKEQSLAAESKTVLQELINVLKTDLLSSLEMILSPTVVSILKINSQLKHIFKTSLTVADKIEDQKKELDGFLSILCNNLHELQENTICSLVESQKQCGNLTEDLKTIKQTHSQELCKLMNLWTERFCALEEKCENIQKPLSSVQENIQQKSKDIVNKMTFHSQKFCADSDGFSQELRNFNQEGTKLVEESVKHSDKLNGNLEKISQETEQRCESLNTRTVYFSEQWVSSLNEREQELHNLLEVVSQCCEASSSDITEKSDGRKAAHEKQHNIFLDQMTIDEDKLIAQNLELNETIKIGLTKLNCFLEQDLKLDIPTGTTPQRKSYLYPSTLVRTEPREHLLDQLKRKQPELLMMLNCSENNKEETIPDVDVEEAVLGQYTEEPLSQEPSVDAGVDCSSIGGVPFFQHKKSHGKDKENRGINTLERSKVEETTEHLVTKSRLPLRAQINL

Centromere-associated protein E (Homo sapiens), sequence (Q02224 whole entry): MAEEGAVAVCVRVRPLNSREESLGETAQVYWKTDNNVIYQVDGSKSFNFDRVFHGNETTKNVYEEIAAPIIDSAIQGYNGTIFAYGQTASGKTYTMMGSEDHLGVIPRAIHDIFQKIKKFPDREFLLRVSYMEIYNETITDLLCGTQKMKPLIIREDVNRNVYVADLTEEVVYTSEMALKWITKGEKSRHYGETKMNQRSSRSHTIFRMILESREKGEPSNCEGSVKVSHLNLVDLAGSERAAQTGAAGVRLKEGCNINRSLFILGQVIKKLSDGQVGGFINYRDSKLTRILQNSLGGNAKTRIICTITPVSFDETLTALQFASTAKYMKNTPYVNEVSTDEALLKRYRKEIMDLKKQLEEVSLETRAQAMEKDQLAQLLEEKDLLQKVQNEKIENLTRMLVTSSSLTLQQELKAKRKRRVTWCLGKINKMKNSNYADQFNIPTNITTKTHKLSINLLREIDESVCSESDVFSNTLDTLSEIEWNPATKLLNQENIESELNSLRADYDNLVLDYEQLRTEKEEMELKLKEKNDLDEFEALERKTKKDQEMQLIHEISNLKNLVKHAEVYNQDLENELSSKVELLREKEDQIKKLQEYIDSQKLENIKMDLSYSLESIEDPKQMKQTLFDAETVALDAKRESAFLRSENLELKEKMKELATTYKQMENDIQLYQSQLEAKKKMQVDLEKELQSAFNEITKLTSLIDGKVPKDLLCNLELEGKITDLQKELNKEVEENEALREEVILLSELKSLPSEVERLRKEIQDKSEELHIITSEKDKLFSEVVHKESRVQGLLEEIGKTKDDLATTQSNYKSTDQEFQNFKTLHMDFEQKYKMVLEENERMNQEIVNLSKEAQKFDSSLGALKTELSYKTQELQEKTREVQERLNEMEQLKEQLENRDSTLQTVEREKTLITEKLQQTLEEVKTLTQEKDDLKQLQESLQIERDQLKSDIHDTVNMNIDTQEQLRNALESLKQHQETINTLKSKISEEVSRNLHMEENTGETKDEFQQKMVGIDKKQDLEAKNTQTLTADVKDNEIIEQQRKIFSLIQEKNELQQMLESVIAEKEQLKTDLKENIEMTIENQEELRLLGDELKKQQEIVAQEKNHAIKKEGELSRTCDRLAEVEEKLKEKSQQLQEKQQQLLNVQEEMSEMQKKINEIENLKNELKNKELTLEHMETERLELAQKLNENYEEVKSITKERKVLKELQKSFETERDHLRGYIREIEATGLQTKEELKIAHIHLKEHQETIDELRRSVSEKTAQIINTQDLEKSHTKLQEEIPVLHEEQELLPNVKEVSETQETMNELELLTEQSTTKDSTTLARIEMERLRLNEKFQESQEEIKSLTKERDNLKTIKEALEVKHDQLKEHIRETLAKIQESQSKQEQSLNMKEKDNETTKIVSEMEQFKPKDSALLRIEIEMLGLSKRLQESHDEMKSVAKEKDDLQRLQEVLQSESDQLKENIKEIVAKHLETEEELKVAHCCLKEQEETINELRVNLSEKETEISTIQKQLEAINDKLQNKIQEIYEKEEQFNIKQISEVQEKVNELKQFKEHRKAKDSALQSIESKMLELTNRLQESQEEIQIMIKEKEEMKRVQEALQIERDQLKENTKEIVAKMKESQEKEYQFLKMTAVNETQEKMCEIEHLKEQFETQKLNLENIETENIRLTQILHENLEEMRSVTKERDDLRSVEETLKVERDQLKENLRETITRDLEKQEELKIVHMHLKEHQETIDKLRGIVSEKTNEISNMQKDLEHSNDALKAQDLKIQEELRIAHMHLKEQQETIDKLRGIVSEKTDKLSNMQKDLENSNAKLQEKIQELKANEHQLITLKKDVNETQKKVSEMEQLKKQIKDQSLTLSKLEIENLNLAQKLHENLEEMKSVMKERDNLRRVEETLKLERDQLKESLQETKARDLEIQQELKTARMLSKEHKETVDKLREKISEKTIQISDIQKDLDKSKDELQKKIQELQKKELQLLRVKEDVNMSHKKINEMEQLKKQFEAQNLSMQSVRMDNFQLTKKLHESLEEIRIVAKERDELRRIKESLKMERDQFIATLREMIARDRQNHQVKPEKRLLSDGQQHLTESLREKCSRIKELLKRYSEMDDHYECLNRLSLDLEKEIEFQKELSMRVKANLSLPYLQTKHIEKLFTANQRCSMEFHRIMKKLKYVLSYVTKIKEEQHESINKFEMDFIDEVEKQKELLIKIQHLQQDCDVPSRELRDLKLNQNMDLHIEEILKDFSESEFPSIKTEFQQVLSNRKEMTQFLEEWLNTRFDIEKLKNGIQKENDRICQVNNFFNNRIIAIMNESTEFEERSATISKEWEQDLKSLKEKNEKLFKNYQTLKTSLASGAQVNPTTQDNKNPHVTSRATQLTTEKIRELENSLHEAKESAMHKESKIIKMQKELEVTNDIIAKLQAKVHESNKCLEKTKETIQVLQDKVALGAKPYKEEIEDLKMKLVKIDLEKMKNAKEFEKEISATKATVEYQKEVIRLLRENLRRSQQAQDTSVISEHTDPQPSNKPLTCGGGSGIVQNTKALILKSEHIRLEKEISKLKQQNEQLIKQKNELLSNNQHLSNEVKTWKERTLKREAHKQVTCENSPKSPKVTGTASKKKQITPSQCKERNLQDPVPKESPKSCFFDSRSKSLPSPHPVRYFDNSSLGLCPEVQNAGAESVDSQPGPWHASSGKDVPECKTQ

## Cc1ccc(C(=O)N(CCCN)[C@@H](c2nc3cc(Cl)ccc3c(=O)n2Cc2ccccc2)C(C)C)cc1
[1]
  inhibition: 7%
[2]
  inhibition: 8.2%
[3]
  inhibition: 8.2%
[4]
  inhibition: 99.6%

## NC(=O)Nc1ccc(-c2ccc(C(F)(F)F)cc2)cc1F
[1]
  inhibition: 11%
[2]
  inhibition: 12.8%
[3]
  inhibition: 6.9%
[4]
  inhibition: 99.4%

## O=C1CCc2cc(-c3ccc(C(F)(F)F)cc3)ccc2N1
[1]
  inhibition: 9%
[2]
  inhibition: 8.9%
[3]
  inhibition: 8.4%
[4]
  inhibition: 99.3%
